The conditions of data set [1]: amino acid hydrophobicity index; cited from earlier work. The source says:
Rimola et al. reported a review paper on the effect of silica surface features on the adsorption of biomolecules, such as polypeptides. […] This tendency was also obtained in our experiments as described in Fig. 2C. […] All 5 ...

The target of the next data set is T1, pepsin (Sus scrofa, UniProt P00791).
T1 construct: purchased WAKO, Japan 161–24482
As to the kind of experiment: Peptide digestive enzyme stability experiment (SGF with pepsin). In kind it is in vitro ADME. The note with it: SGF pH 1.2 with pepsin (0.32 g/100 mL), 60 min, 37 °C, RP-HPLC UV, no addition of pepsin = 100%. How it is done: Finally, we investigated whether the heat-treated silica gel used in this study protected the peptides that were adsorbed to them from pepsin degradation. We used DFELEDD with a high score value (Fig. 3D). The peptide was adsorbed to the heat-treated silica gel, incubated for 60 min in simulated gastric fluid containing pepsin, and then transferred to the pH 7.4 buffer that mimics the intestinal environment. […] In contrast, the degradation of the peptide was inhibited under the condition with silica gel and 57.1 ± 3.9% of the peptide was released. This occurred because the peptide was adsorbed to the pore surface of the heat-treated silica gel. Schlipf et al. reported EGFP (2.4 nm diameter × 4.2 nm) protection from proteolytic attack by Pepsin A (7.3 nm × 3.6 nm × 5.4 nm) by the mesoporous silica with 7.3 nm pores. […]
SGF (simulated gastric fluid) has been reported previously. […] To quantify the peptide, 250 μL of solution was injected into the HPLC.
Chromatographic analysis was performed with a HPLC system (JASCO, Japan) equipped with pump (model PU 2086 Plus), UV detector (model MD 4017), and a C18 column (d = 20 mm, L = 250 mm; SHISEIDO, Japan). […] The column was maintained at 30 °C, the flow rate was 5 mL/min, and the eluted peaks were detected by UV absorbance of 220 and 280 nm.

Where no end group is shown, it is not given here. Where only a bound is given, the exact number is not on record here.

T1 sequence (P00791 60-385): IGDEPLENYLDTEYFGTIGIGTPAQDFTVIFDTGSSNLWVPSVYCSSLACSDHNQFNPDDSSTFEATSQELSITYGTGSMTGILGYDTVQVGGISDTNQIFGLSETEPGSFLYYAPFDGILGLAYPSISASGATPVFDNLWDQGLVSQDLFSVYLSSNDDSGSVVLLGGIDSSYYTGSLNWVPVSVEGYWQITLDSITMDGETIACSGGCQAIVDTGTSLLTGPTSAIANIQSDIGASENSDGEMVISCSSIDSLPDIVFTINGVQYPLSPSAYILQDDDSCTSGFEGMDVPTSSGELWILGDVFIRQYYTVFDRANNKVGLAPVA

For `N[C@@H](Cc1ccccc1)C(=O)O` [F, Phe], the “Hydrophobicity of amino acid” value in data set [1] is listed as 2.8.

As for `CC[C@H](C)[C@H](N)C(=O)O` [I], the “Hydrophobicity of amino acid” value in data set [1] is 4.5.

On to `CC(C)[C@H](N)C(=O)O` [V], for which the “Hydrophobicity of amino acid” value in data set [1] was 4.2.

In the case of DFELEDD [DFELEDD], at pepsin (0.5 mM peptide mixed with 25 mg/mL heat-treated silica gel, precipitate released in 300 μL PBS pH 7.4, mean ± SD), the “Peptide release rate (protection) after pepsin degradation, with heat-treated silica gel” value worked out at 57.1 ± 3.9%. Moreover, the “Peptide release rate after pepsin degradation, without silica gel” value at pepsin (no silica gel, 0.5 mM peptide, then pH 7.4 PBS) was less than 1.0%.

Values taken from article PMC6054636, “Interaction between porous silica gel microcarriers and peptides for oral administration of functional peptides” (Scientific Reports, 2018).
